For assay [1], the target named is T1, Soluble recombinant rat CD73 (Rattus norvegicus, UniProt P21588).
T1 sequence (P21588 29-551 limits assumed): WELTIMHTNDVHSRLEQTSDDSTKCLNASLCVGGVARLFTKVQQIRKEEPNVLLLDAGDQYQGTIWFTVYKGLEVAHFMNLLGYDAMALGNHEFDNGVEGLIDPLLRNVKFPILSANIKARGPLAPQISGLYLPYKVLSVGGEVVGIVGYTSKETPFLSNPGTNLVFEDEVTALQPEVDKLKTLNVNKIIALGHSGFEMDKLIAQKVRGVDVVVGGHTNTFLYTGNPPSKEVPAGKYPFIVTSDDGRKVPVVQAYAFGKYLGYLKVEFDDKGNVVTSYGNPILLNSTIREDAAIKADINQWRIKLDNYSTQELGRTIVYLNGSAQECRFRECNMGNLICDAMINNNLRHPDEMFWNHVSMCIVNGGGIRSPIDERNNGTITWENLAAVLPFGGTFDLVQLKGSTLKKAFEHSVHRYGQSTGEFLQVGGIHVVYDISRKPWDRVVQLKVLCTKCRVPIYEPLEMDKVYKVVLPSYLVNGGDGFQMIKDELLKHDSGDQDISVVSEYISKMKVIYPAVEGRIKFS
The assay can be described thus: CD73 enzyme inhibition assay, soluble rat CD73. The class given is biochemical. As to conditions: soluble recombinant rat CD73, Km 59 µM, substrate AMP (5 µM). The procedure:
Both compounds were evaluated for metabolic stability in mouse liver microsomes (MLM) and plasma protein binding (PPB) (Table 1).
The CD73 enzyme inhibition assay of recombinant soluble CD73, membrane-bound human CD73, soluble rat CD73 and mouse CD73 was performed as previously described.^[16,35^]

Assay [2] addresses T2, CD73/AMPase activity in human breast tumor tissues (Homo sapiens, UniProt P21589).
T2 construct: cryosections of breast tumor samples as well as sentinel lymph node samples were investigated; from tissue; host or cells: primary breast tumors and sentinel lymph nodes of two patients, 6 µm cryosections
T2 sequence (P21589 27-574): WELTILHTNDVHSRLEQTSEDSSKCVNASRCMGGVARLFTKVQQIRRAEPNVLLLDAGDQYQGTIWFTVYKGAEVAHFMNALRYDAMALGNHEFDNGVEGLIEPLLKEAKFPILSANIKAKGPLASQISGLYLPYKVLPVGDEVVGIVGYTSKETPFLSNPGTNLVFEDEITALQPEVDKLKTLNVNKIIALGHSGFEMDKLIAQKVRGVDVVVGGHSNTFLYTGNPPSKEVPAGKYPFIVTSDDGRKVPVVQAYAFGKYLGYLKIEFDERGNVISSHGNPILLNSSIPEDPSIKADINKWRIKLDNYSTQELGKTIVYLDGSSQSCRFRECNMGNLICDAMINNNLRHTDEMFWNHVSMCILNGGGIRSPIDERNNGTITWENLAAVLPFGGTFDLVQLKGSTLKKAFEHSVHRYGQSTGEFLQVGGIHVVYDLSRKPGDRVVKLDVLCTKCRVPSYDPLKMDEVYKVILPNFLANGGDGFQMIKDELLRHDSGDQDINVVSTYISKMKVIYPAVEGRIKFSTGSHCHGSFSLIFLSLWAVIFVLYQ
The experiment in a line: In situ enzyme histochemistry of AMPase activity in breast tumor cryosections. Format: biochemical. As to conditions: 10–50 nM inhibitor, 400 µM AMP, tissue cryosections. As for the experimental part:
Subsequent analysis of CD73‐mediated AMPase activities was performed by incubating tissue cryosections with AMP and CD73 inhibitors at different concentrations. Figure 2 depicts representative images of AMP‐specific staining in breast tumors from patient X (panel A) and patient Y (panel B), determined in the absence (control) and in the presence of 10 nM of the potent CD73 inhibitor 1.
FIGURE 3 Effects of CD73 inhibitors on AMPase activity in human breast tumor tissues. The effects of CD73 inhibitors on AMPase activity was determined in situ by incubating primary breast tumor samples from patient X (A) and patient Y (B) with 400 µM AMP and 1.5 mM Pb(NO3)2 in the absence (control) and the presence of the indicated concentrations of CD73 inhibitor. (C). Mean pixel intensities of brown staining due to the hydrolysis of AMP leading to Pb3(PO4)2 precipitation were quantified in the selected regions and expressed as arbitrary units (AU) (mean ± SEM; n = 2). Scale bars: 2 mm (A, B), and 500 µm (A, right insets).
For the localization of AMPase activities in human tumors, the lead nitrate-based enzyme histochemistry was employed. […] AMPase activity was determined by measuring AMP-specific brown staining intensities from the images using QuPath v.0.3.0 software. […] The average DAB intensity levels were measured as described earlier.^[39^] […]

pKi: −log10 of the molar value.

On to `CCCN(Cc1ccc(-c2cn(CCF)nn2)cc1)c1nc(Cl)nc2c1ncn2[C@@H]1O[C@H](COP(=O)(O)CP(=O)(O)O)[C@@H](O)[C@H]1O` [compound 1], for which the pKi (as a rule, the negative decadic logarithm of the Ki, by convention in mol/L) in assay [1] is 8.22. For the same compound, the “Reduction of CD73/AMPase activity in the breast TME” value in assay [2] was 60%–70.

Source of the values: paper PMC13077603, “Fluorine‐18‐Labeled Nucleotide Analogs Targeting Ecto‐5'‐Nucleotidase (CD73) for Positron Emission Tomography Imaging of Solid Tumors” (Angewandte Chemie (International Ed. in English), 2026).
